Reference: patent publication US11655448B2, “Placenta-derived matrix and methods of preparing and use thereof” (LIFENET HEALTH, priority 2015, dated 2023)

B1: Placental lactogen: human chorionic sommatomammotropin (aka placental lactogen) found in HuMATRIX (protein, UniProt P0DML2 27-217, looked up)
Chorionic somatomammotropin …: VQTVPLSRLFDHAMLQAHRAHQLAIDTYQEFEETYIPKDQKYSFLHDSQTSFCFSDSIPTPSNMEETQQKSNLELLRISLLLIESWLEPVRFLRSMFANNLVYDTSDSDDYHLLKDLEEGIQTLMGRLEDGSRRTGQILKQTYSKFDTNSHNHDALLKNYGLLYCFRKDMDKVETFLRMVQCRSVEGSCGF

Key:
[1] = tested on: dorsal root ganglia (DRGs); assay: Dorsal root ganglia attachment and growth on substrates; assay type: cell-based
Procedure: The ability for ectodermal cell attachment and growth on HuMATRIX was also assessed using dorsal root ganglia (DRGs). Near 100% attachment of DRGs was observed on HuMATRIX, Laminin, and decellularized placenta with urea extraction, but nearly no DRGs attached to culture plastic alone, with the cells stained for beta-III-tubulin and DAPI to assess the cell morphology.

[2] = tested on: MCF7 tumor cell; settings: reported in the literature; cited from earlier work

Molecule | attachment of DRGs [1] | increase in MCF7 tumor cell proliferation [2]
Laminin | ~100% | –
B1 | – | 4.4 fold
